Laboratory results taken from patent US8829197B2, “Salts and polymorphs of desazadesferrithiocin polyether analogues as metal chelation agents” (FerroKin Biosciences, Inc., priority 2008, dated 2014).
Where two headings read alike, the source gives them in different places.

Assays:
[1] = iron-loaded Cebus apella, mean ± SEM, cited from earlier work
[2] = Iron clearing efficiency in non-iron-overloaded, bile duct-cannulated rats (dose response po; po versus sc); format: in vivo, male Sprague-Dawley rats; details: mean ± SEM
Experimental: Cebus apella monkeys were obtained from World Wide Primates (Miami, Fla.). Male Sprague-Dawley rats were procured from Harlan Sprague-Dawley (Indianapolis, Ind.). Ultrapure salts were obtained from Johnson Matthey Electronics (Royston, UK). All hematological and biochemical studies were performed by Antech Diagnostics (Tampa, Fla.).
Cannulation of Bile Duct in Non-Iron-Overloaded Rats. The cannulation has been described previously in Bergeron, R J et al., Blood 1993, 81, 2166-2173 and Bergeron, R J et al., Ann. N.Y Acad.Sci. 1990, 612, 378-393. Bile samples were collected from male Sprague—Dawley rats (400-450 g) at 3 h intervals for 24 h. The urine sample was taken at 24 h. Sample collection and handling are as previously described. 57'58
Drug Preparation and Administration. In the iron clearing experiments the rats were given a single 50, 150, or 300 mol/kg dose of the drugs po and/or sc. The compounds were administered as a solution in water, 300 mol/kg dose only or (2) as the monosodium salt of the compound of interest (prepared by addition of the free acid to 1 equivalent of NaOH). The chelators were given to the monkeys po and sc at a dose of 150 tmol/kg. The drugs were prepared as for the rats; 2 was given po and sc as a solution in water.
Calculation of Iron Chelator Efficiency. ICE is calculated by dividing the actual amount of iron cleared by a given compound by the theoretical amount that should be cleared. The theoretical iron outputs of the chelators were generated on the basis of a 2:1 ligand:iron complex. The efficiencies in the rats and monkeys were calculated as set forth in Bergeron, R J et al., J. Med. Chem. 1999, 42, 2432-2440. Data are presented as the mean+the standard error of the mean; p-values were generated via a one-tailed Student's 1-test in which the inequality of variances was assumed; and a p-value of <0.05 was considered significant.
Chelator-Induced Iron Clearance and Iron Clearing Efficiency in Non-Iron-Overloaded Rodents Dose Response Studies. Because there is a limited amount of chelatable iron available in an animal at any given time, the iron clearance, and therefore iron-clearing efficiency of a ligand, is saturable. The key to managing this phenomenon can be found in the ferrokinetics and the dose-response properties of the ligand. In this regard, the dose-response along with the corresponding ferrokinetics of each compound given po were evaluated in the non-iron-overloaded, bile duct-cannulated rodent model.
Iron-Clearing Efficiency in Non-Iron-Overloaded Rodents and Iron-Loaded Primates: Oral versus Subcutaneous Administration. A similar protocol was carried out to confirm consistence of results and compare the effects of the compounds across species. Cebus apella monkeys and male Sprague-Dawley rats were used, 3-8 per group.

[3] = non-iron-overloaded rats, mean ± SEM, cited from earlier work
[4] = Moisture sorption/desorption (DVS) analysis; format: physicochemical; details: for weight loss on desorption: between ~95% and ~5% RH; for total weight gain (water uptake): relative humidity from ~5% to ~95% RH; for hygroscopicity (in words): from DVS data
Experimental: Moisture sorption/desorption (DVS) data were collected on a VTI SGA-100 Vapor Sorption Analyzer. Sorption and desorption data were collected over a range of 5% to 95% relative humidity (RH) at 10% RH intervals under a nitrogen purge. Samples were not dried prior to analysis. Equilibrium criteria used for analysis were less than 0.0100% weight change in 5 minutes, with a maximum equilibration time of 3 hours if the weight criterion was not met. Data were not corrected for the initial moisture content of the samples. NaCl and PVP were used as calibration standards.

[5] = Relative humidity stress / physical stability on exposure and storage; format: physicochemical
Description: Following isolation, salts were then characterized by one or more standard techniques including but not limited to x-ray powder diffraction (XRPD), single crystal x-ray diffraction (SC-XRD or XRD), nuclear magnetic resonance (NMR), solubility analysis, and stability testing by moisture sorption/desorption stress analysis and differential scanning calorimetry (DSC).

[6] = Approximate solubility (aliquots of solvent, visual inspection); format: physicochemical; details: for solubility: salts of (S)-4′-(OH)-DADFT-PE (Table 16); for aqueous solubility: water
Experimental: Weighed samples were treated with aliquots of test solvents at room temperature. Samples were typically sonicated between additions to facilitate dissolution. Complete dissolution of the test material in each solvent was determined by visual inspection. Solubility was estimated based on the total volume of solvent used to provide complete dissolution. The actual solubility may be greater than the value calculated due to the incremental addition of solvent and kinetics of dissolution of the material. […] The solubility is expressed as […] if dissolution occurred after the addition of first aliquot.
Approximate solubilities are calculated based on the total solvent used to give a solution based on visual inspection. Small aliquots of solvent are added to a weighed sample with agitation. Actual solubilities may be greater because of the volume of the solvent portions utilized or a slow rate of dissolution. Solubilities are reported to the nearest mg/mL. Simulated gastric fluid (SGF) was prepared according to the 2008 USP vol. 1, p 817 except without pepsin.
Approximate solubilities are calculated based on the total solvent used to give a solution based on visual inspection. Small aliquots of solvent are added to a weighed sample with agitation. Actual solubilities may be greater because of the volume of the solvent portions utilized or a slow rate of dissolution.

[7] = listed as Magnesium Salt of (S)-4′-(Oh)-DADFT-PE
[8] = listed as N-methyl-D-glucamine (NMG) Salt of (S)-4′-(OH)-DADFT-PE
[9] = listed as Tromethamine Salt of (S)-4′-(OH)-DADFT-PE

Q: What does the source list for `COCCOCCOCCOc1cccc(C2=N[C@@](C)(C(=O)O)CS2)c1O` [(S)-3′-HO-DADFT, (S)-4,5-dihydro-2-[2-hydroxy-3-(3,6,9-trioxadecyloxy)phenyl]-4-methyl-4-thiazolecarboxylic acid]?
A: Primate ICE @ 150 μmol/kg ([1]; po): 23.0 ± 4.1%; Primate ICE @ 150 μmol/kg ([1]; sc): 21.5 ± 3.2%; Iron-Clearing Efficiency (%) ([2]; dose 50 μmol/kg): 20.7 ± 4.4%; Iron-Clearing Efficiency (%) ([2]; dose 150 μmol/kg): 18.7 ± 2.9%; Iron-Clearing Efficiency (%) ([2]; dose 300 μmol/kg): 10.6 ± 4.4%; Rodent ICE @ 300 μmol/kg ([3]; po): 10.6 ± 4.4%; Rodent ICE @ 300 μmol/kg ([3]; sc): 13.4 ± 4.5%

Q: What does the source list for `C[C@]1(C(=O)O)CSC(c2ccc(O)cc2O)=N1` [(S)-4′-HO-DADFT]?
A: Primate ICE @ 150 μmol/kg ([1]; sc): 30.4 ± 7.2%; Iron-Clearing Efficiency (%) ([2]; dose 50 μmol/kg): 21.7 ± 3.5%; Iron-Clearing Efficiency (%) ([2]; dose 150 μmol/kg): 11.2 ± 4.2%; Iron-Clearing Efficiency (%) ([2]; dose 300 μmol/kg): 5.5 ± 1.9%; Rodent ICE @ 300 μmol/kg ([3]; po): 5.5 ± 1.9%; Rodent ICE @ 300 μmol/kg ([3]; sc): 8.7 ± 2.6%

Q: Which results are given for `C[C@]1(C(=O)O)CSC(c2ccc(O)cc2O)=N1` [Deferitrin, (S)-2-(2,4-dihydroxyphenyl)-4,5dihydro-4-methyl-4-thiazolecarboxylic acid, reference compound]?
A: Primate ICE @ 150 μmol/kg ([1]; po): 16.8 ± 7.2%; Primate ICE @ 150 μmol/kg ([1]; sc): 15.9 ± 2.7%; Iron-Clearing Efficiency (%) ([2]; dose 150 μmol/kg): 1.5 + 1.7%; Iron-Clearing Efficiency (%) ([2]; dose 300 μmol/kg): 1.1 ± 0.8%; Rodent ICE @ 300 μmol/kg ([3]; po): 1.1 ± 0.8%; Rodent ICE @ 300 μmol/kg ([3]; sc): 1.1 ± 0.6%

Q: Which “additional weight gain above ~85% RH” value [4, 7] does the source give for `COCCOCCOCCOc1ccc(C2=N[C@@](C)(C(=O)O)CS2)c(O)c1` [Magnesium A] here?
A: ~20.2 wt %

Q: And the “weight gain below ~85% RH” value [4, 7]?
A: ~22.0 wt %

Q: What about the “weight loss on desorption” value [4, 7] of the same molecule?
A: ~41.2 wt %

Q: And the “total weight gain (water uptake)” value [4, 7]?
A: ~42.7 wt %

Q: And the “total weight gain (water uptake)” value ([4]; listed as magnesium salt candidate)?
A: ~42.7 wt %

Q: And the “weight loss upon equilibration at ~5% RH” value [4, 7]?
A: ~0.7 wt %

Q: What about the “deliquescence upon ~75% RH stress” value ([5]; ~75% RH stress, listed as magnesium salt candidate) of the same molecule?
A: No apparent deliquescence

Q: What about the solubility ([6]; Water) of the same molecule?
A: 60 mg/mL

Q: What about the aqueous solubility ([6]; salts of (S)-4′-(OH)-DADFT-PE, listed as magnesium salt candidate) of the same molecule?
A: ~60 mg/mL

Q: With `COCCOCCOCCOc1ccc(C2=N[C@@](C)(C(=O)O)CS2)c(O)c1` [NMG A, 2,3,4,5,6-pentahydroxy-N-methylhexan-1-aminium (S)-2-(2-hydroxy-4-(2-(2-(2-methoxyethoxy)ethoxy)ethoxy)phenyl)-4-methyl-4,5-dihydrothiazole-4-carboxylate] as the molecule, how does the “additional weight gain above ~85% RH” value [4, 8] read?
A: ~27.0 wt %

Q: What about the “weight gain below ~85% RH” value [4, 8] of the same molecule?
A: ~34.7 wt %

Q: And the “weight loss on desorption” value [4, 8]?
A: ~60.6 wt %

Q: What about the “total weight gain (water uptake)” value [4, 8] of the same molecule?
A: ~61.7 wt %

Q: What about the “total weight gain (water uptake)” value ([4]; listed as NMG salt candidate) of the same molecule?
A: ~61.7 wt %

Q: And the “weight loss upon equilibration at ~5% RH” value [4, 8]?
A: ~0.5 wt %

Q: And the “appearance upon ~75% RH stress” value ([5]; ~75% RH stress)?
A: became oily

Q: And the “deliquescence upon ~75% RH stress” value ([5]; ~75% RH stress, listed as NMG salt candidate)?
A: No apparent deliquescence

Q: And the solubility ([6]; Water)?
A: 60 mg/mL

Q: What about the aqueous solubility ([6]; salts of (S)-4′-(OH)-DADFT-PE, listed as NMG salt candidate) of the same molecule?
A: ~60 mg/mL

Q: For `COCCOCCOCCOc1ccc(C2=N[C@@](C)(C(=O)O)CS2)c(O)c1` [Tromethamine A, 1,3-dihydroxy-2-(hydroxymethyl)propan-2-aminium (S)-2-(2-hydroxy-4-(2-(2-(2-methoxyethoxy)ethoxy)ethoxy)phenyl)-4-methyl-4,5-dihydrothiazole-4-carboxylate], which “weight gain above ~65% RH” value ([4]; above ~65% RH) is on record?
A: ~50.3 wt %

Q: And the “weight gain (water uptake) below ~65% RH” value ([4]; below ~65% RH)?
A: ~1.5 wt %

Q: What about the “weight loss on desorption” value [4, 9] of the same molecule?
A: ~48.4 wt %

Q: What about the “hygroscopicity (in words)” value [4] of the same molecule?
A: lower hygroscopicity compared to magnesium and NMG salt candidates

Q: And the “total weight gain (water uptake)” value [4, 9]?
A: ~51.8 wt %

Q: And the “weight loss upon equilibration at ~5% RH” value [4, 9]?
A: ~0.7 wt %

Q: What about the “appearance upon ~75% RH stress at elevated temperature” value ([5]; one day relative humidity stress, ~75% RH, elevated temperature) of the same molecule?
A: become oily

Q: What about the “deliquescence upon ~75% RH stress” value ([5]; ~75% RH stress, listed as Tromethamine salt candidate) of the same molecule?
A: no apparent deliquescence

Q: What about the aqueous solubility ([6]; salts of (S)-4′-(OH)-DADFT-PE, listed as Tromethamine salt candidate) of the same molecule?
A: > 124 mg/mL

Q: For `COCCOCCOCCOc1cccc(C2=N[C@@](C)(C(=O)[O-])CS2)c1O.[K+]` [potassium salt Form A, potassium (S)-3′-desazadesferrithiocin polyether], which “weight loss during desorption” value ([4]; desorption step, 95% to 5% RH) is on record?
A: 63.4%

Q: And the “hygroscopicity (in words)” value [4]?
A: extremely hygroscopic

Q: And the “average percentage weight loss at plateau of absorption curve” value ([4]; plateau between 45 and 65% RH)?
A: 8.7%

Q: What about the “weight gain during sorption” value ([4]; sorption step from 5% to 95% RH) of the same molecule?
A: 67.7%

Q: What about the “form obtained on exposure to 53% RH” value ([5]; 53% RH for 11 days at room temperature) of the same molecule?
A: Form B

Q: What about the “physical change when exposed to 75% RH” value ([5]; 75% RH for 3 days) of the same molecule?
A: Complete deliquesce

Q: And the “Approximate Solubility” value ([6]; ACN, Table 14)?
A: >6 mg/mL

Q: What about the “Approximate Solubility” value ([6]; EtOAc/H2O, Table 14) of the same molecule?
A: >70 mg/mL

Q: And the “Approximate Solubility” value ([6]; IPA, Table 14)?
A: >68 mg/mL

Q: And the “Approximate Solubility” value ([6]; MEK, Table 14)?
A: <7 mg/mL

Q: And the “Approximate Solubility” value ([6]; SGF (simulated gastric fluid, without pepsin), Table 14)?
A: ≧230 mg/mL

Q: And the “Approximate Solubility” value ([6]; THF, Table 14)?
A: ~ 5 mg/mL

Q: And the “Approximate Solubility” value ([6]; Water, salts of (S)-3′-(OH)-DADFT-PE (Table 14))?
A: ≧48 mg/mL

Q: What about the aqueous solubility ([6]; salts of (S)-3′-(OH)-DADFT-PE) of the same molecule?
A: ≥ 48 mg/mL
